Experimental data: patent US4201786A, “Water soluble pesticidal quaternary ammonium salt compounds” (Union Carbide Corporation, priority 1977, dated 1980)

How the values were obtained:
[1] = Water solubility (Table I); type: physicochemical; settings: 25° C.
[2] = test system: bean aphid (Aphis fabae Scop.); assay: Bean aphid foliage spray test; type: in vivo; parameters: key: A: Excellent control; B: Partial control; C: No control; settings: 500 ppm, 24 hour
Procedure: (§1) Suspensions of the test compounds were prepared by dissolving one gram of compound in 50 milliliters of acetone in which had been dissolved 0.1 gram (10 percent of the weight of compound) of an alkylphenoxy polyethoxyethanol surfactant, as an emulsifying or dispersing agent. The resulting solution was mixed into 150 milliliters of water to give roughly 200 milliliters of a suspension containing the compound in finely divided form. The thus-prepared stock suspension contained 0.5 percent by weight of test compound. The test concentrations in parts per million by weight employed in the tests described hereinbelow were obtained by appropriate dilutions of the stock suspension with water. The test procedures were as follows:
Adults and nymphal stages of the bean aphid (Aphis fabae Scop.) reared on potted dwarf nasturtium plants at 65°-70° F. and 50-70 percent relative humidity, constituted the test insects. For testing purposes, the number of aphids per pot was standardized to 100-150 by trimming plants containing excess aphids.
The test compounds were formulated by diluting the stock suspension with water to give a suspension containing 500 parts of test compound per million parts of final formulation.
The potted plants (one pot per compound tested) infested with 100-150 aphids, were placed on a revolving turntable and sprayed with 100-110 milliliters of test compound formulation by use of a DeVilbiss spray gun set at 40 psig. air pressure. This application, which lasted 25 seconds, was sufficient to wet the plants to run-off. As a control, 100-110 milliliters of a water-acetone-emulsifier solution containing no test compound were also sprayed on infested plants. After spraying, the pots were placed on their sides on a sheet of white standard mimeograph paper which had been previously ruled to facilitate counting. Temperature and humidity in the test room during the 24 hour holding period were 65°-70° F. and 50-70 percent, respectively. Aphids which fell onto the paper and were unable to remain standing after being uprighted were considered dead. Aphids remaining on the plants were observed closely for movement and those which were unable to move the length of the body upon stimulator by prodding were considered dead. Percent mortality was recorded for various concentration levels.
(§2) In these test the pesticidal activity of the compounds against aphid, mite, Southern Armyworm, Mexican Bean Beetle, and house fly was rated as follows: […]

[3] = test system: two-spotted mite (Tetranychus urticae Koch); assay: Mite foliage spray test; type: in vivo; parameters: key: A: Excellent control; B: Partial control; C: No control; settings: 500 ppm, six days
Procedure: as §1
Adults and nymphal stages of the two-spotted mite (Tetranychus urticae Koch), reared on Tendergreen bean plants at 80±5 percent relative humidity, were the test organisms. Infested leaves from a stock culture were placed on the primary leaves of two bean plants six to eight inches in height, growing in a two- and-a-half inch clay pot. 150-200 mites, a sufficient number for testing, transferred from the excised leaves to the fresh plants in a period of twenty-four hours. Following the twenty-four hour transfer period, the excised leaves were removed from the infested plants. The test compounds were formulated by diluting the stock suspension with water to give a suspension with water to give a suspension containing 500 parts of test compound per million parts of final formulation. The potted plants (one pot per compound) were placed on a revolving turntable and sprayed with 100-110 milliliters of test compound formulation by use of a DeVilbiss spray gun set at 40 psig. air pressure. This application, which lasted for 25 seconds was sufficient to wet the plants to run-off. As a control, 100-110 milliliters of a water solution containing acetone and emulsifier in the same concentrations as the test compound formulation, but containing no test compound, were also sprayed on infested plants. The sprayed plants were held at 80±5 percent relative humidity for six days, after which a mortality count of motile forms was made. Microscopic examination for motile forms was made on the leaves of the test plants. Any individual which was capable of locomotion upon prodding, was considered living.
as §2

[4] = test system: southern armyworm (Prodenia Eridania, (Cram.)); assay: Southern armyworm leaf spray test; type: in vivo; parameters: key: A: Excellent control; B: Partial control; C: No control; settings: 500 ppm, three days
Procedure: as §1
Larvae of the southern armyworm (Prodenia Eridania, (Cram.), reared on Tendergreen bean plants at a temperature of 80°±5° F. and relative humidity of 50±5 percent, constituted the test insects.
The test compounds were formulated by diluting the stock suspension with water to give a suspension containing 500 parts of test compound per million parts of final formulation. Potted Tendergreen bean plants of standard height and age were placed on a revolving turntable and sprayed with 100-110 milliliters of test compound formulation by use of a DeVilbiss spray gun set at 10 psig. air pressure.
This application which lasted 25 seconds was sufficient to wet plants to run-off. As a control, 100-110 milliliters of a water-acetone-emulsifier solution containing no test compound were also sprayed on infested plants. When dry, the paired leaves were separated and each one was placed in a 9 centimeter Petri dish lined with moistened filter paper. Five randomly selected larvae were introduced into each dish and the dishes were closed. The closed dishes were labeled and held at 80°-85° F. for three days. Although the larvae could easily consume the whole leaf within twenty-four hours, no more food was added. Larvae which were unable to move the length of the body, even upon stimulation by prodding, were considered dead. Percent mortality was recorded for various concentration levels.
as §2

[5] = test system: Mexican bean beetle (Epilachna varivestis, Muls.); assay: Mexican bean beetle leaf spray test; type: in vivo; parameters: key: A: Excellent control; B: Partial control; C: No control; settings: 500 ppm, three days
Procedure: as §1
Fourth instar larvae of the Mexican bean beetle (Epilachna varivestis, Muls.) reared on Tendergreen bean plants at a temperature of 80°±5° and 50±5 percent relative humidity, were the test insects.
The test compounds were formulated by diluting the stock suspension with water to give a suspension containing 500 parts of test compound per million parts of final formulation. Potted Tendergreen bean plants of standard height and age were placed on a revolving turntable and sprayed with 100-110 milliliters of test compound formulation by use of a DeVilbiss spray gun set at 10 psig air pressure. This application, which lasted 25 seconds was sufficient to wet plants to run-off. As a control, 100-110 milliliters of a water-acetone-emulsifier solution containing no test compound were also sprayed on infested plants. When dry, the paired leaves were separated and each was placed in a 9 centimeter Petri dish lined with moistened filter paper. Five randomly selected larvae were introduced into each dish, and the dishes were closed. The closed dishes were labeled and held at a temperature of 80°±5° F. for three days. Although the larvae could easily consume the leaf within 24 to 48 hours, no more food was added. Larvae which were unable to move the length of the body, even upon stimulation, were considered dead.
as §2

[6] = test system: house flies (Musca domestica, L.); assay: Fly bait test; type: in vivo; parameters: key: A: Excellent control; B: Partial control; C: No control; settings: 500 ppm, bait in 10 percent sugar solution, twenty four hours
Procedure: as §1
Four to six day old adult house flies (Musca domestica, L.) reared according to the specifications of the Chemical Specialties Manufacturing Association (Blue Book, McNair-Dorland Co., NY., 1954; pages 243-244, 261) under controlled conditions of 80°±5° F. and 50±5 percent relative humidity, were the test insects. The flies were immobilized by anesthetizing with carbon dioxide and twenty five immobilized individuals, males and females, were transferred to a cage consisting of a standard food strainer about five inches in diameter which was inverted over a wrapping-paper-covered surface. The test compounds were formulated by diluting the stock suspension with a 10 percent (by weight) sugar solution to give a suspension containing 500 parts of test compound per million parts of final formulation, by weight. Ten milliliters of the test formulation were added to a souffle cup containing a one inch square of an absorbent cotton pad. This bait cup was introduced and centered on the blotting paper under the food strainer prior to admitting the anesthetized flies. The caged flies were allowed to feed on the bait for twenty four hours, at a temperature of 80°±5° F. and the relative humidity of 50±5 percent.
as §2

[7] = test system: Bean; assay: Phytotoxicity test, bean; type: in vivo; parameters: key: 1: no perceptible injury; 2: intermediate degrees of injury based upon the number and extent to which leaves were injured; 3: intermediate degrees of injury based upon the number and extent to which leaves were injured; 4: intermediate degrees of injury based upon the number and extent to which leaves were injured; 5: the plant was dead; settings: 2500 ppm spray, after ten days
Procedure: as §1
(§3) Experiments were also conducted to determine the phytotoxicity of representative compositions with respect to healthy fresh plants. Solutions of the compounds were prepared as described above to provide a concentration of 2500 parts per million of the test compound. The test plants were sprayed in accordance with the procedure described above for the Mite Foliage Spray Test so as to deliver approximately 100 milliliters of test solution to the leaves of each plant tested. The sprayed plants and controls were set aside for approximately one hour to allow the solutions to dry and were then placed in the greenhouse. After ten days the plants were visually inspected to determine the extent of foliage injury. A rating of 1 indicates no perceptible injury; 5 indicates the plant was dead and ratings of 2, 3 and 4 indicate intermediate degrees of injury based upon the number and extent to which leaves were injured.

[8] = test system: Corn; assay: Phytotoxicity test, corn; type: in vivo; parameters: key: 1: no perceptible injury; 2: intermediate degrees of injury based upon the number and extent to which leaves were injured; 3: intermediate degrees of injury based upon the number and extent to which leaves were injured; 4: intermediate degrees of injury based upon the number and extent to which leaves were injured; 5: the plant was dead; settings: 2500 ppm spray, after ten days
Procedure: as §1, §3

[9] = test system: Tomato; assay: Phytotoxicity test, tomato; type: in vivo; parameters: key: 1: no perceptible injury; 2: intermediate degrees of injury based upon the number and extent to which leaves were injured; 3: intermediate degrees of injury based upon the number and extent to which leaves were injured; 4: intermediate degrees of injury based upon the number and extent to which leaves were injured; 5: the plant was dead; settings: 2500 ppm spray, after ten days
Procedure: as §1, §3

[10] = test system: Cotton; assay: Phytotoxicity test, cotton; type: in vivo; parameters: key: 1: no perceptible injury; 2: intermediate degrees of injury based upon the number and extent to which leaves were injured; 3: intermediate degrees of injury based upon the number and extent to which leaves were injured; 4: intermediate degrees of injury based upon the number and extent to which leaves were injured; 5: the plant was dead; settings: 2500 ppm spray, after ten days
Procedure: as §1, §3

[11] = test system: Soybean; assay: Phytotoxicity test, soybean; type: in vivo; parameters: key: 1: no perceptible injury; 2: intermediate degrees of injury based upon the number and extent to which leaves were injured; 3: intermediate degrees of injury based upon the number and extent to which leaves were injured; 4: intermediate degrees of injury based upon the number and extent to which leaves were injured; 5: the plant was dead; settings: 2500 ppm spray, after ten days
Procedure: as §1, §3

| SMILES | solubility [1] [mg/mL] | Pesticidal activity, Aphid [2] | Pesticidal activity, Mite [3] | Pesticidal activity, Southern Armyworm [4] | Pesticidal activity, Mexican Bean Beetle [5] | Pesticidal activity, Fly [6] | POST-Emergent Herbicidal (phytotoxicity rating), Bean [7] | POST-Emergent Herbicidal (phytotoxicity rating), Corn [8] | POST-Emergent Herbicidal (phytotoxicity rating), Tomato [9] | POST-Emergent Herbicidal (phytotoxicity rating), Cotton [10] | POST-Emergent Herbicidal (phytotoxicity rating), Soybean [11] |
| --- | --- | --- | --- | --- | --- | --- | --- | --- | --- | --- | --- |
| CN(C(=O)C[N+](C)(C)C)C(=O)Oc1cccc2c1OC(C)(C)C2 | 570 | A | C | A | A | A | 1 | 1 | 2 | 2 | 2 |
| CN(C(=O)C[n+]1ccn(C)c1)C(=O)Oc1cccc2c1OC(C)(C)C2 | 370 | A | A | A | A | A | 2 | 1 | 1 | 1 | 2 |
| CN(C(=O)C[n+]1ccc(N(C)C)cc1)C(=O)Oc1cccc2c1OC(C)(C)C2 | 160 | A | A | A | A | A | 2 | 1 | 1 | 1 | 2 |
| CN(C(=O)C[N+]1(C)CCCC1)C(=O)Oc1cccc2c1OC(C)(C)C2 | 490 | A | A | A | A | A | 2 | 1 | 1 | 2 | 2 |
| CN(C(=O)C[N+]1(C)CCOCC1)C(=O)Oc1cccc2c1OC(C)(C)C2 | 140 | A | B | A | A | A |  |  |  |  |  |
| CCCCCCCCCCCCCCCCCC[N+](C)(C)CC(=O)N(C)C(=O)Oc1cccc2c1OC(C)(C)C2 | > 250 | B | C | A | A | A | 2 | 2 | 1 | 2 | 2 |
| CCCCCCCCCCCC[N+](C)(C)CC(=O)N(C)C(=O)Oc1cccc2c1OC(C)(C)C2 | > 250 | A | A | A | A | A | 2 | 2 | 2 | 2 | 2 |
